Laboratory results: patent publication US20250376498A1, “FUSION PROTEINS COMPRISING AN IMPROVED GLP-1 RECEPTOR AGONIST AND USES THEREOF” (Guangzhou Innogen Pharmaceutical Group Co., Ltd., priority 2022, published 2025)
“Also recorded” adds a separate entry of the source.

B1: YN-011: GLP-1 fusion protein of SEQ ID NO: 7: GLP-1 (A8G, G22E, R36G), linker peptide and IgG2/Fc domain (C222S, A330S, P331S) (protein)
chain: HGEGTFTSDVSSYLEEQAAKEFIAWLVKGGGSSGAPPPSGGGGSERKSCVECPPCPAPPVAGPSVFLFPPKPKDTLMISRTPEVTCVVVDVSHEDPEVQFNWYVDGVEVHNAKTKPREEQFNSTFRVVSVLTVVHQDWLNGKEYKCKVSNKGLPSSIEKTISKTKGQPREPQVYTLPPSREEMTKNQVSLTCLVKGFYPSDIAVEWESNGQPENNYKTTPPMLDSDGSFFLYSKLTVDKSRWQQGNVFSCSVMHEALHNHYTQKSLSLSPG

What was measured:
[1] = test system: HMC3 microglial cells; assay: Inflammatory factor mRNA in HMC3 microglial cells induced by Aβ1-42 oligomers (qPCR); type: cell-based, human; conditions: for mRNA expression of IL-6 / mRNA expression of TNF-α: 10 μM Aβ1-42 oligomers, 48 hours, YN-011 100 nM and 500 nM; for mRNA expression of IL-6: GABA 10 μM and 100 μM (so in the source); for mRNA expression of TNF-α: GABA 100 μM, combination 100 μM GABA and 100 nM YN-011; for inflammatory cytokine mRNA expression: Aβ1-42 oligomers (figure legends)
Description: Under sterile conditions, dissolve the synthesized Aβ1-42 peptide (AnaSpec #AS-20276) in hexafluoroisopropanol (Mecklin #H811026) to obtain a 1 mM solution. Divide the solution into 1.5 ml sterile centrifuge tubes and evaporate the hexafluoroisopropanol in a vacuum evaporator. The dried peptide forms a film in the tubes and is stored at −20° C. for later use. Freshly prepare Aβ1-42 oligomers from the dried peptide film as follows: dissolve the dried peptide film in anhydrous DMSO to obtain a 5 mM solution, then dilute with cold cell culture basal medium to obtain a 100 µM stock solution. After incubating at 4° C. for 24 hours, use the stock solution for cell treatment.
Seed HMC3 human microglial cells into a 24-well plate. After overnight incubation at 37° C. with 5% CO2, treat the cells in each well with 10 μM Aβ1-42 oligomers alone or co-treated with 1, 10, or 100 μM GABA for 48 hours. Each drug treatment is performed in three replicate wells. After 48 hours of treatment, isolate total RNA from the cells in each well using 1 ml of Trizol (Invitrogen #15596026) following the manufacturer's instructions. Dissolve the RNA pellet in 20 μl of DEPC-treated water. Measure the RNA concentration and purity using a NanoDrop 2000. Convert RNA into cDNA using a reverse transcription kit (Yeasen #11141ES60). Prepare the PCR reaction as follows: 5 μl of PCR mix (Yeasen #10108ES03), 0.2 μl of forward primer, 0.2 μl of reverse primer, 1 μl of cDNA, and 3.6 μl of water. Perform qPCR on an Applied Biosystems 7500 real-time PCR system using the following thermal program: initial denaturation at 95° C. for 3 minutes, followed by 40 cycles of denaturation at 95° C. for 30 seconds, annealing at 60° C. for 30 seconds, and extension at 72° C. for 1 minute. Compare the relative mRNA expression of TNF-α and IL-6 between treated and untreated cells using the ΔΔCt method, normalized to the expression of the housekeeping gene RPLP0.
(§1) Please refer to section 8.17 for the experimental procedure, but the drug treatment in this experiment is different from that in section 8.17. In this experiment, the drug treatment is as follows: treat the cells in each well with 10 μM Aβ1-42 oligomers alone or co-treated with 10, 100, or 500 nM YN-011 for 48 hours. Each drug treatment is performed in three replicate wells.
as §1, with “µM” for “μM”, “100 μM GABA and/or 100” for “10, 100, or 500”

[2] = test system: SH-SY5Y neuronal cells; assay: TNF-α-induced apoptosis in SH-SY5Y cells (western blot Bcl-2, cleaved-caspase3); type: cell-based; conditions: 60 ng/ml TNF-α, 48 hours; YN-011 10, 100, 500 nM; GABA 1, 10, 100 μM; combination 100 μM GABA + 100 nM YN-011
Description: The experimental procedure is as follows: • 1) Digest SH-SY5Y neuronal cells in a 10 cm culture dish using 0.25% trypsin and seed them into a 12-well plate. • 2) Place the culture plate in a CO2 incubator for overnight pre-culture (37° C., 5% CO2) to allow cell adhesion. • 3) Using medium containing 5% FBS, treat the cells in each well with 60 ng/ml TNF-α alone or co-treated with 10, 100, or 500 nM YN-011. Incubate the cells at 37° C. for 48 hours. Each drug treatment is performed in three replicate wells. • 4) After 48 hours, discard the supernatant, gently wash the cells once with PBS, and place the cell culture plate on ice. Add 120 μl of RIPA cell lysis buffer (Beyotime P0013B) to each well, including protease and phosphatase inhibitors, and lyse the cells for 15 minutes. • 5) Transfer the cell lysate to a 1.5 ml EP tube and centrifuge at 14,000 rpm for 30 minutes. • 6) Carefully aspirate the supernatant into a new EP tube, add 5× loading buffer containing β-mercaptoethanol, and boil the samples at 100° C. for 10 minutes to denature the proteins. • 7) Perform SDS-PAGE gel electrophoresis with 10 μg of protein loaded per lane. Position the gel vertically against the power rack in the electrophoresis tank, ensuring that the concave side of the gel faces the power rack. Two gels can share one power rack. Fix the gel and power rack in the electrophoresis tank as required. […]

| Molecule | mRNA expression of IL-6 [1] | mRNA expression of TNF-α [1] | inflammatory cytokine mRNA expression [1] | TNF-α-induced apoptosis in SH-SY5Y neuronal cells (western blot) [2] |
| --- | --- | --- | --- | --- |
| NCCCC(=O)O [GABA, γ-aminobutyric acid] | significantly reduce | significantly reduces | reduction of inflammatory cytokine mRNA expression | reduces TNF-α-induced apoptosis; also recorded: reduction of TNF-α-induced apoptosis |
| B1 | significantly reduce | significantly reduce | reduction of inflammatory cytokine mRNA expression | significantly reduces TNF-α-induced apoptosis; also recorded: reduction of TNF-α-induced apoptosis |
